PubChem BioAssay AID2060912 (Molecular Pharmacology Branch, DTP, NCI, 2025)

System: HUVEC/MSC spheroids viability
Test: Human HUVEC/MSC cell line growth inhibition [KRAS2];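 on viability, T/C: percent of DMSO vehicle control luminescence so 100% = untreated viability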
Conditions: for viability, T/C: stronger effect = lower value
Outline: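 Spheroids of human HUVEC plus MSCs, without tumor cells, were treated with single agents and combinations. Each drug was tested in half-log steps down from near its clinical Cmax, or from 10 microM when Cmax was unknown. HUVEC and hMSC were used at passage </=5.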

[1] = curve of first compound, second compound 0.0316 µM
[2] = curve of first compound, second compound 0.1 µM
[3] = curve of first compound, second compound 0.316 µM
[4] = curve of first compound, second compound 1 µM
[5] = curve of first compound, second compound 3.16 µM
[6] = curve of first compound, second compound 10 µM
[7] = second compound 0.0316 µM, first compound 0.0316 µM
[8] = second compound 0.0316 µM, first compound 0.1 µM
[9] = second compound 0.0316 µM, first compound 0.316 µM
[10] = second compound 0.0316 µM, first compound 1 µM
[11] = second compound 0.0316 µM, first compound 3.16 µM
[12] = second compound 0.0316 µM, first compound 10 µM
[13] = second compound 0.1 µM, first compound 0.0316 µM
[14] = second compound 0.1 µM, first compound 0.1 µM
[15] = second compound 0.1 µM, first compound 0.316 µM
[16] = second compound 0.1 µM, first compound 1 µM
[17] = second compound 0.1 µM, first compound 3.16 µM
[18] = second compound 0.1 µM, first compound 10 µM
[19] = second compound 0.316 µM, first compound 0.0316 µM
[20] = second compound 0.316 µM, first compound 0.1 µM
[21] = second compound 0.316 µM, first compound 0.316 µM
[22] = second compound 0.316 µM, first compound 1 µM
[23] = second compound 0.316 µM, first compound 3.16 µM
[24] = second compound 0.316 µM, first compound 10 µM
[25] = second compound 1 µM, first compound 0.0316 µM
[26] = second compound 1 µM, first compound 0.1 µM
[27] = second compound 1 µM, first compound 0.316 µM
[28] = second compound 1 µM, first compound 1 µM
[29] = second compound 1 µM, first compound 3.16 µM
[30] = second compound 1 µM, first compound 10 µM
[31] = second compound 3.16 µM, first compound 0.0316 µM
[32] = second compound 3.16 µM, first compound 0.1 µM
[33] = second compound 3.16 µM, first compound 0.316 µM
[34] = second compound 3.16 µM, first compound 1 µM
[35] = second compound 3.16 µM, first compound 3.16 µM
[36] = second compound 3.16 µM, first compound 10 µM
[37] = second compound 10 µM, first compound 0.0316 µM
[38] = second compound 10 µM, first compound 0.1 µM
[39] = second compound 10 µM, first compound 0.316 µM
[40] = second compound 10 µM, first compound 1 µM
[41] = second compound 10 µM, first compound 3.16 µM
[42] = second compound 10 µM, first compound 10 µM

Cn1nccc1Nc1nccc(-c2cc3c(s2)C(C)(C)N(CCN2CCOCC2)C3=O)n1 + COc1cc2nc(C)nc(NC(C)c3cc(N)cc(C(F)(F)F)c3)c2cc1OC1CCOC1
IC50 [1]: 2410 nM
IC50 [2]: 2320 nM
IC50 [3]: 2560 nM
IC50 [4]: 2570 nM
IC50 [5]: 2590 nM
IC50 [6]: 2220 nM
viability, T/C [7]: 104%
viability, T/C [8]: 124%
viability, T/C [9]: 124%
viability, T/C [10]: 108%
viability, T/C [11]: 32.1%
viability, T/C [12]: 4.35%
viability, T/C [13]: 90.2%
viability, T/C [14]: 115%
viability, T/C [15]: 110%
viability, T/C [16]: 92.1%
viability, T/C [17]: 34.4%
viability, T/C [18]: 4.06%
viability, T/C [19]: 108%
viability, T/C [20]: 119%
viability, T/C [21]: 107%
viability, T/C [22]: 95%
viability, T/C [23]: 39.9%
viability, T/C [24]: 3.01%
viability, T/C [25]: 85.6%
viability, T/C [26]: 113%
viability, T/C [27]: 113%
viability, T/C [28]: 106%
viability, T/C [29]: 37.8%
viability, T/C [30]: 7.24%
viability, T/C [31]: 92.5%
viability, T/C [32]: 111%
viability, T/C [33]: 121%
viability, T/C [34]: 104%
viability, T/C [35]: 38.5%
viability, T/C [36]: 3.79%
viability, T/C [37]: 72.5%
viability, T/C [38]: 92.9%
viability, T/C [39]: 93.5%
viability, T/C [40]: 88.5%
viability, T/C [41]: 33.6%
viability, T/C [42]: 0.79%

COC(=O)c1ccc2c(C(=Nc3ccc(N(C)C(=O)CN4CCN(C)CC4)cc3)c3ccccc3)c(O)[nH]c2c1
viability, T/C (compound 1 µM): 58.1% [middle of 5 runs]
viability, T/C (compound 3.16 µM): 39.6% [middle of 5 runs]
viability, T/C (compound 10 µM): 0.37% [middle of 5 runs]
IC50 (curve of compound): 1.96 µM [middle of 5 runs]

CC(C)NCC(C(=O)N1CCN(c2ncnc3c2C(C)CC3O)CC1)c1ccc(Cl)cc1 (stereo not drawn) + CNCc1ccccc1-c1csc(C(C)Nc2nc(C)nc3cc(OC)c(OC)cc23)c1
IC50 [1]: > 10000 nM
IC50 [2]: > 10000 nM
IC50 [3]: > 10000 nM
IC50 [4]: > 10000 nM
IC50 [5]: > 10000 nM
IC50 [6]: < 31.6 nM
viability, T/C [7]: 95.5%
viability, T/C [8]: 108%
viability, T/C [9]: 98.5%
viability, T/C [10]: 70.2%
viability, T/C [11]: 69%
viability, T/C [12]: 64.2%
viability, T/C [13]: 94.8%
viability, T/C [14]: 97.8%
viability, T/C [15]: 75.6%
viability, T/C [16]: 70.4%
viability, T/C [17]: 58.1%
viability, T/C [18]: 54.1%
viability, T/C [19]: 82.2%
viability, T/C [20]: 106%
viability, T/C [21]: 83.3%
viability, T/C [22]: 73.5%
viability, T/C [23]: 56.2%
viability, T/C [24]: 50.8%
viability, T/C [25]: 84.6%
viability, T/C [26]: 106%
viability, T/C [27]: 103%
viability, T/C [28]: 71.3%
viability, T/C [29]: 56.5%
viability, T/C [30]: 51.6%
viability, T/C [31]: 108%
viability, T/C [32]: 93.2%
viability, T/C [33]: 89.4%
viability, T/C [34]: 79.5%
viability, T/C [35]: 62.5%
viability, T/C [36]: 57.7%
viability, T/C [37]: 0.38%
viability, T/C [38]: 0.44%
viability, T/C [39]: 0.45%
viability, T/C [40]: 0.42%
viability, T/C [41]: 0.39%
viability, T/C [42]: 0.26%

Cn1nccc1Nc1nccc(-c2cc3c(s2)C(C)(C)N(CCN2CCOCC2)C3=O)n1 + CNCc1ccccc1-c1csc(C(C)Nc2nc(C)nc3cc(OC)c(OC)cc23)c1
IC50 [1]: 2140 nM
IC50 [2]: 2490 nM
IC50 [3]: 2590 nM
IC50 [4]: 2390 nM
IC50 [5]: 1970 nM
IC50 [6]: < 31.6 nM
viability, T/C [7]: 94.5%
viability, T/C [8]: 119%
viability, T/C [9]: 117%
viability, T/C [10]: 94.7%
viability, T/C [11]: 26.9%
viability, T/C [12]: 3.31%
viability, T/C [13]: 85.8%
viability, T/C [14]: 103%
viability, T/C [15]: 105%
viability, T/C [16]: 110%
viability, T/C [17]: 36.7%
viability, T/C [18]: 3.17%
viability, T/C [19]: 88.2%
viability, T/C [20]: 96.1%
viability, T/C [21]: 103%
viability, T/C [22]: 111%
viability, T/C [23]: 39.6%
viability, T/C [24]: 1.89%
viability, T/C [25]: 83%
viability, T/C [26]: 90.5%
viability, T/C [27]: 103%
viability, T/C [28]: 96.7%
viability, T/C [29]: 36.2%
viability, T/C [30]: 0.95%
viability, T/C [31]: 102%
viability, T/C [32]: 135%
viability, T/C [33]: 128%
viability, T/C [34]: 99.9%
viability, T/C [35]: 15.4%
viability, T/C [36]: 0.23%
viability, T/C [37]: 0.35%
viability, T/C [38]: 0.4%
viability, T/C [39]: 0.48%
viability, T/C [40]: 0.37%
viability, T/C [41]: 0.37%
viability, T/C [42]: 0.19%

C=CC(=O)N1CCN(c2nc(=O)n(-c3c(C)ccnc3C(C)C)c3nc(-c4c(O)cccc4F)c(F)cc23)C(C)C1 (stereo not drawn)
viability, T/C (compound 0.0316 µM): 99.5% [middle of 9 runs]
viability, T/C (compound 10 µM): 117% [middle of 9 runs]
IC50 (compound alone, run of 05/05/2024): > 10000 nM
